In patent publication US20050282743A1, “Molecular interactions in cells” (Arbor Vita Corporation, priority 2001, published 2005):
Ends that are not written are not given here. Peptide text beside a SMILES is read from it. * marks the point of attachment. Biotin = O=C1N[C@H]2[C@H](CS[C@H]2CCCCC(=O)*)N1

What was measured:
Format in all cases: binding
[1] = biological target: PDZ-domain polypeptide (GST/PDZ fusion protein); experiment: Apparent affinity (Kd) by titration of PL peptide in the G assay; settings: PDZ TAX IP2, PDZ Domain 1; read-out: Peptide Optimal Conc (Kd by titration of the PL peptide)
Method: (§1) The third column labeled “Peptide Optimal Concentration” in the tables is a number reflective of the binding interaction between the PL protein and PDZ protein. […] The column labeled “Protein Optimal Concentration” refers to the protein concentration used to assay PL interaction (in ug/ml); a ‘0’ is indicative of 5 ug/ml protein concentration; any other value represents the concentration (in ug/ml) used to determine the dissociation constant for a given interaction.
(§2) The “A” and “G” assays described supra can be used to determine the “apparent affinity” of binding of a PDZ ligand peptide to a PDZ-domain polypeptide. Apparent affinity is determined based on the concentration of one molecule required to saturate the binding of a second molecule (e.g., the binding of a ligand to a receptor). Two particularly useful approaches for quantitation of apparent affinity of PDZ-ligand binding are provided infra.
(§3) In cases where satisfying the above criteria proves difficult, an alternative approach (infra) can be used.
(§4) (1) A fixed concentration of a PDZ-domain polypeptide and increasing concentrations of a labeled PL peptide (labeled with, for example, biotin or fluorescein, see TABLE 9 for representative peptide amino acid sequences) are mixed together in solution and allowed to react. In certain assays, peptide concentrations are 0.1 uM, 1 uM, 10 uM, 100 uM, 1 mM. In other assays, appropriate reaction times can range from 10 minutes to 2 days at temperatures ranging from 4° C. to 37° C. In some instances, the identical reaction can also be carried out using a non-PDZ domain-containing protein as a control (e.g., if the PDZ-domain polypeptide is fusion protein, the fusion partner can be used).
(§5) (2) PDZ-ligand complexes can be separated from unbound labeled peptide using a variety of methods known in the art.
(§6) (3) The PDZ-ligand complex is detected based on presence of the label on the peptide ligand using a variety of methods and detectors known to one of skill in the art. For example, if the label is fluorescein and the separation is achieved using HPSEC, an in-line fluorescence detector can be used. The binding can also be detected as described supra for the G assay.

[2] = biological target: T1, PDZ protein (GST-PDZ fusion) (Homo sapiens, UniProt Q6P0Q8); experiment: G' assay (10 uM PL peptide), results of TABLE 7 and TABLE 12
T1 construct: made in house; host or cells: E. coli (DH5alpha, BL21 or JM109)
How it was run: (§7)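 Same steps as the G-zero format, apart from a peptide concentration of 10 uM in place of 20 uM in step 2. Amino-terminally biotinylated PL peptides bind GST-PDZ fusions, and retained peptide is quantified by 450 nm absorbance.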

[3] = biological target: T2, PDZ protein (GST-PDZ fusion) (Homo sapiens, UniProt O14908); experiment: as above; settings: PDZ TAX IP2, PDZ Domain 1
T2 construct: made in house; host or cells: E. coli (DH5alpha, BL21 or JM109)
T2 sequence (O14908 1-333): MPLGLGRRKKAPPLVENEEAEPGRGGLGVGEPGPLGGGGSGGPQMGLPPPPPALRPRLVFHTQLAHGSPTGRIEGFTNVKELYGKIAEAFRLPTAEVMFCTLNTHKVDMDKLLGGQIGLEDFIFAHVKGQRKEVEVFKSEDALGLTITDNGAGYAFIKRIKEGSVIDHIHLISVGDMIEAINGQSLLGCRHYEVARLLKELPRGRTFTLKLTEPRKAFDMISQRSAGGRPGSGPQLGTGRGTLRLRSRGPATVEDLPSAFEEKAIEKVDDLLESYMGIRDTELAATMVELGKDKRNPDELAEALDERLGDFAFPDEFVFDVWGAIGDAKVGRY
How it was run: as §7

[4] = biological target: T3, PDZ-domain polypeptide (GST/PDZ fusion protein) (Homo sapiens, UniProt Q12923); experiment: Apparent affinity (Kd) by titration of PL peptide in the G assay; settings: PDZ PTPL-1, PDZ Domain 2; read-out: Peptide Optimal Conc (non-zero value: Kd by titration of the PL peptide)
T3 construct: made in house; host or cells: E. coli (DH5alpha, BL21 or JM109)
Method: as §1, §2, §3, §4, §5, §6

[5] = biological target: T4, PDZ-domain polypeptide (GST/PDZ fusion protein) (Homo sapiens, UniProt Q5TCQ9); experiment: as above; settings: PDZ KIAA1634, PDZ Domain 2; read-out: Peptide Optimal Conc (non-zero value: Kd by titration of the PL peptide)
T4 construct: made in house; host or cells: E. coli (DH5alpha, BL21 or JM109)
T4 sequence (Q5TCQ9 1-1481): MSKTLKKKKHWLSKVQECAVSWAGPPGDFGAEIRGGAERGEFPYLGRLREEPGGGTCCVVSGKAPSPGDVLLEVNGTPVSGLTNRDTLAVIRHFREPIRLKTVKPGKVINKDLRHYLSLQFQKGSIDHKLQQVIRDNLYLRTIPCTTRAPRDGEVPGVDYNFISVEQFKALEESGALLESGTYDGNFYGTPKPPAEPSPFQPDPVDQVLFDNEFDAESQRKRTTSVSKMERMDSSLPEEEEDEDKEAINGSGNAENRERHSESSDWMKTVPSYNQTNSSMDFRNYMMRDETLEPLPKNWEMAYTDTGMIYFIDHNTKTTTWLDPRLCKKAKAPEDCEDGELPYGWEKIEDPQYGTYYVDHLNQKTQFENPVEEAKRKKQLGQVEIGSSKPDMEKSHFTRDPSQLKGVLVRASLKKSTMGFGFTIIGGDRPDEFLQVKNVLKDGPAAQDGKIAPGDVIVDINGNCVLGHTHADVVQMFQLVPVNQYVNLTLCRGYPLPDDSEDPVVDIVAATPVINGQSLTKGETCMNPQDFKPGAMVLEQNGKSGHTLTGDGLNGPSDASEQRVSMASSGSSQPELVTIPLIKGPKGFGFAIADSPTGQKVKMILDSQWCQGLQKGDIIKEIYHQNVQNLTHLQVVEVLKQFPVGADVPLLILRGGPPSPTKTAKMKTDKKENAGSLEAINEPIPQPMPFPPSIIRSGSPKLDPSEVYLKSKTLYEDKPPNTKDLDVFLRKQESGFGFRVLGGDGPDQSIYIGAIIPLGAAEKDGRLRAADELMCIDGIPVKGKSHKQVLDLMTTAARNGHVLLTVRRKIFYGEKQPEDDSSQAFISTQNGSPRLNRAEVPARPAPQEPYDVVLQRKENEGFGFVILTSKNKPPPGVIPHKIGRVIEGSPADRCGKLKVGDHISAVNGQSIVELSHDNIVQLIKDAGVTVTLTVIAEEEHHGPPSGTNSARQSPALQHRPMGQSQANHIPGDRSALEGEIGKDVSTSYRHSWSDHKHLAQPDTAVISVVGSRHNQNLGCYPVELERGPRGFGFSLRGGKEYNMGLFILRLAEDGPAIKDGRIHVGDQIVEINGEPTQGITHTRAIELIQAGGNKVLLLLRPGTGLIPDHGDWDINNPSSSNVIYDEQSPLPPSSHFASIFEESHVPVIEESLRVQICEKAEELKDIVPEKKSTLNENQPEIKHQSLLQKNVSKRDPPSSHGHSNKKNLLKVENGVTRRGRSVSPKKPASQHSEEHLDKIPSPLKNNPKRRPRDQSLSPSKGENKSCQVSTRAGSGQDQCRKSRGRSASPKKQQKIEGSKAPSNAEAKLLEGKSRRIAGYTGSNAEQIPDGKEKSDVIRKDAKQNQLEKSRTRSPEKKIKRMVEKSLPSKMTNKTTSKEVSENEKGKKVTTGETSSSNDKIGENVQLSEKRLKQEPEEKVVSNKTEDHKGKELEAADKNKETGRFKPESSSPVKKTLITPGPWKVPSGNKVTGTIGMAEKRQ
Method: as §1, §2, §3, §4, §5, §6

[6] = biological target: T5, PDZ protein (GST-PDZ fusion) (Homo sapiens, UniProt Q12923); experiment: G' assay (10 uM PL peptide), results of TABLE 7 and TABLE 12; settings: PDZ PTPL-1, PDZ Domain 2
T5 construct: made in house; host or cells: E. coli (DH5alpha, BL21 or JM109)
How it was run: as §7

[7] = biological target: T6, PDZ protein (GST-PDZ fusion) (Homo sapiens, UniProt Q5TCQ9); experiment: as above; settings: PDZ KIAA1634, PDZ Domain 2
T6 construct: made in house; host or cells: E. coli (DH5alpha, BL21 or JM109)
T6 sequence (Q5TCQ9 1-1481): T4 sequence (Q5TCQ9 1-1481)
How it was run: as §7

T1 sequence (Q6P0Q8 whole entry, the tested form may be a part): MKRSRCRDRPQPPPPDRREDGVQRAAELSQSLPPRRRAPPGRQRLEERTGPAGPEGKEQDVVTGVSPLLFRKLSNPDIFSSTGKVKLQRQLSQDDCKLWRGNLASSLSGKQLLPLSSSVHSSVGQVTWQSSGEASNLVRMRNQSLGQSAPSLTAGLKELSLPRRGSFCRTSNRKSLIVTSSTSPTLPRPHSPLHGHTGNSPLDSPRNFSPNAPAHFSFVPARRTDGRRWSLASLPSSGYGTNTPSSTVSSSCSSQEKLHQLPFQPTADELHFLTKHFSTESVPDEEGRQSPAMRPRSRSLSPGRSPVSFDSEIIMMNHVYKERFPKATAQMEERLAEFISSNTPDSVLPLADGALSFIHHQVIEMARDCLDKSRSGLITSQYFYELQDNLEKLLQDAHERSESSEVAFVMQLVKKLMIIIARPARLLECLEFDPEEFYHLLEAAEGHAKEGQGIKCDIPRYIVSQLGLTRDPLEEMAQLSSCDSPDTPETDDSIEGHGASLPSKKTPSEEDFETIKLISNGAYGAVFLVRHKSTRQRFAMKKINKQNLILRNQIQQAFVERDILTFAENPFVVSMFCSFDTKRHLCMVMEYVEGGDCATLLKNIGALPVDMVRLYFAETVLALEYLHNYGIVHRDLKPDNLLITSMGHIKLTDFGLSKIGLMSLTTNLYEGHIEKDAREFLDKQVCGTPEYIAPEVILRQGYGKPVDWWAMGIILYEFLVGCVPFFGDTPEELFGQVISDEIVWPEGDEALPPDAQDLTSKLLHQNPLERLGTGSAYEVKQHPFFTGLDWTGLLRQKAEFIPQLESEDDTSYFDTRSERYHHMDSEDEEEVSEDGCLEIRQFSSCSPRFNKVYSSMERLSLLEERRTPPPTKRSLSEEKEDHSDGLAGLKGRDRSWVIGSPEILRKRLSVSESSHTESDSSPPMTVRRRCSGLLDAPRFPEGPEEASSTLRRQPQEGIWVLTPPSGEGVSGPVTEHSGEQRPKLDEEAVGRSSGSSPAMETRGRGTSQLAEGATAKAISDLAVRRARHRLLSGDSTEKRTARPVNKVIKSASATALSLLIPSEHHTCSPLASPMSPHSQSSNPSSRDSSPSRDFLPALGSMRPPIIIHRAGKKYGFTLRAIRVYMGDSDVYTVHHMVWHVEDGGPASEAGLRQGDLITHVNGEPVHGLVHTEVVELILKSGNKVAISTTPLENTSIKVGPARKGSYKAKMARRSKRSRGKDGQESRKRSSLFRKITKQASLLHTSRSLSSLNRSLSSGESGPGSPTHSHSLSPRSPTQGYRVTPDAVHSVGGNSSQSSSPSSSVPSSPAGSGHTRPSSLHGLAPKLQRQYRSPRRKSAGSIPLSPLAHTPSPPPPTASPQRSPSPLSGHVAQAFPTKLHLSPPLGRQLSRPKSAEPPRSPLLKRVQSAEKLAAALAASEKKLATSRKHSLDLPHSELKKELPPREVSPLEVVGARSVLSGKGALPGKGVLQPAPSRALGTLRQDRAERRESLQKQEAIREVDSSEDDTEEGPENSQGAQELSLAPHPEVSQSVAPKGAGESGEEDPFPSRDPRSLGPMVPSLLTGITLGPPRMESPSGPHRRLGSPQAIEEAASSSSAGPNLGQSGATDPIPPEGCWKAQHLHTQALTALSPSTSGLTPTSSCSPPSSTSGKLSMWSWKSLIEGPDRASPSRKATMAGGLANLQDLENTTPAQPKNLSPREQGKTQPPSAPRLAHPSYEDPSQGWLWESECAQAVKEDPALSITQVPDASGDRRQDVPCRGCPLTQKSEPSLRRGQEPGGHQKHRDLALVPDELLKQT
T3 sequence (Q12923 whole entry, the tested form may be a part): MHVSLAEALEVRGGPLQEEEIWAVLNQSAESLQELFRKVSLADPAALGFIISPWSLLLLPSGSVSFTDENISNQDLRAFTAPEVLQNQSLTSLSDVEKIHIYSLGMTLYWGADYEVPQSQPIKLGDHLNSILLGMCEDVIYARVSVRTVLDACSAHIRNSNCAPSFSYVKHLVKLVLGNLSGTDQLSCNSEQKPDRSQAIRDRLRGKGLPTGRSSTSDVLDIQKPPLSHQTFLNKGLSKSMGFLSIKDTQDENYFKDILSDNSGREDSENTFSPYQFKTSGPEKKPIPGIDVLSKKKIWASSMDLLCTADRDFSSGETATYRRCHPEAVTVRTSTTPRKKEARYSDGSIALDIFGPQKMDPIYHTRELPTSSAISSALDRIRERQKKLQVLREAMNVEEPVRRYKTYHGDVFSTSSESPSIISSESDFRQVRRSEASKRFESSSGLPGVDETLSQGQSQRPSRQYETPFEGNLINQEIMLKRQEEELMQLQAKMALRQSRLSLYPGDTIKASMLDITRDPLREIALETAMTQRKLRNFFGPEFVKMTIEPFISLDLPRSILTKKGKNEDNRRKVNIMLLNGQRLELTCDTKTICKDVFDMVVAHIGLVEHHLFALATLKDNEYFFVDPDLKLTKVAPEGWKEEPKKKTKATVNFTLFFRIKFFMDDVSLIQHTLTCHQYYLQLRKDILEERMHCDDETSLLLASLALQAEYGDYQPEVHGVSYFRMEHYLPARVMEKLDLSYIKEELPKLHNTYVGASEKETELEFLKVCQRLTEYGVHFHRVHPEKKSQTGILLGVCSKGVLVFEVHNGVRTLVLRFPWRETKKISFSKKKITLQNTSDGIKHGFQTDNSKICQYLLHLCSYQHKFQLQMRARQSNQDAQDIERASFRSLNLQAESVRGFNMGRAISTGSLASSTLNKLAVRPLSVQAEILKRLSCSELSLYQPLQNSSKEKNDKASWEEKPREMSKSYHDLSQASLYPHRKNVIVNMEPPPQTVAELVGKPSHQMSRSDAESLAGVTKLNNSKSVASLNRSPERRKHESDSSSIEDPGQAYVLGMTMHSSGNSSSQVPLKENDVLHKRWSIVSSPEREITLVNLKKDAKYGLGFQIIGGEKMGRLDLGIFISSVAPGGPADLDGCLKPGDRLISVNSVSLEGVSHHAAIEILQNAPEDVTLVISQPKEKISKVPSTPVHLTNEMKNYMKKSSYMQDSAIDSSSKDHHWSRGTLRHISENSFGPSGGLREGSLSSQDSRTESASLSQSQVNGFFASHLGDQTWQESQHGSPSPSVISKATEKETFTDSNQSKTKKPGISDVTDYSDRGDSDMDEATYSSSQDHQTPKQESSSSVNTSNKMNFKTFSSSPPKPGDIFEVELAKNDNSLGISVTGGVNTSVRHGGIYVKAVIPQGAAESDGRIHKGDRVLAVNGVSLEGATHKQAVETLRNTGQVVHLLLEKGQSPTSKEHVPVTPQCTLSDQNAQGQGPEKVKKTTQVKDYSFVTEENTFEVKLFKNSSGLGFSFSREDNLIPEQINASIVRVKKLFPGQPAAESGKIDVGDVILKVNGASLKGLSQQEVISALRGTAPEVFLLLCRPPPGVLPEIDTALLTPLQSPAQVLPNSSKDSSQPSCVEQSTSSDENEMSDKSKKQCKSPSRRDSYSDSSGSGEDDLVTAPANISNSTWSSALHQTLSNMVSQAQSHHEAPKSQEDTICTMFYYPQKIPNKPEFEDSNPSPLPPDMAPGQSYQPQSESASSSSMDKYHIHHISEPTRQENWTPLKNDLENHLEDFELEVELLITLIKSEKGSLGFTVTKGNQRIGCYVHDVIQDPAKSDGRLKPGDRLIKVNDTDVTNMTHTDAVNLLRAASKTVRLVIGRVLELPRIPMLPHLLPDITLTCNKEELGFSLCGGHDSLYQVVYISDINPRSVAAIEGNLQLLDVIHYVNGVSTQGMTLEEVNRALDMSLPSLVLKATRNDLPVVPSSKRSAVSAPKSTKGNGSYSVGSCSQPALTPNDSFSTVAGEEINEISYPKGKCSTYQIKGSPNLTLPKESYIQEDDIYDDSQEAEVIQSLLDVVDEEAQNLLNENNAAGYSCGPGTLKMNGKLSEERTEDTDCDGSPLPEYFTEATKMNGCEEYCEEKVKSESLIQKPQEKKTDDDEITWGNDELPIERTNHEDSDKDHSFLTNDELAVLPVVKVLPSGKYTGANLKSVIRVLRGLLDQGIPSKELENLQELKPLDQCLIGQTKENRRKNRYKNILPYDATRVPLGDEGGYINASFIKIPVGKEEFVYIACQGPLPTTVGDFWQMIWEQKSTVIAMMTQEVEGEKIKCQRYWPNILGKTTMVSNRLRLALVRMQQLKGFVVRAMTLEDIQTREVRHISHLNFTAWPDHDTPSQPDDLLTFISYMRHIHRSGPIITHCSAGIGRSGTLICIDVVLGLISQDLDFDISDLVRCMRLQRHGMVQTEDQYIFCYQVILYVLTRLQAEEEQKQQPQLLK
T5 sequence (Q12923 whole entry, the tested form may be a part): as above

Kd [1] [µM]	Classification ([2]; PDZ KIAA0807(S), PDZ Domain 1)	Classification ([2]; PDZ KIAA807, PDZ Domain not given)	Classification [3]	Kd [4] [µM]	Kd [5] [µM]	Classification [6]	Classification [7]	Compound
2.5	1 (A450 nm 0-1)	1 (A450 nm 0-1)	4 (A450 nm 3-4)	–	–	–	–	AKT-1 (Biotin-VDSERRPHFPQFSYSASSTA)
–	–	–	–	5	5	3 (A450 nm 2-3)	2 (A450 nm 1-2)	CC[C@H](C)[C@H](NC(=O)CCCC[C@@H]1SC[C@@H]2NC(=O)N[C@@H]21)C(=O)N[C@H](C(=O)N[C@H](C(=O)N[C@H](C(=O)N[C@H](C(=O)N[C@H](C(=O)N[C@@H](CCSC)C(=O)N[C@H](C(=O)N[C@H](C(=O)N[C@@H](CC(N)=O)C(=O)N[C@H](C(=O)N[C@@H](CC(=O)O)C(=O)N[C@@H](Cc1ccccc1)C(=O)N1CCC[C@H]1C(=O)N1CCC[C@H]1C(=O)N[C@@H](CCCCN)C(=O)N[C@@H](CCC(=O)O)C(=O)N[C@@H](CO)C(=O)N[C@@H](CO)C(=O)N[C@@H](CC(C)C)C(=O)O)C(C)C)[C@@H](C)O)C(C)C)[C@@H](C)O)C(C)C)C(C)C)[C@@H](C)O)C(C)C [ActRIIA] (Biotin-IVTVVTMVTNVDFPPKESSL-OH; C-terminus assumed)
